The text below walks through data of patent EP4703362A1 (Chengdu Sibeibo Pharmaceutical Technology Co., Ltd, priority 2023, dated 2024).

In this experiment the target is T1, CGRP receptor complex (Homo sapiens, UniProt O60894+Q16602).
T1 construct: host or cells: SK-N-MC
Nature of the experiment: determination of cell functional antagonism - cAMP determination. Format: cell-based. As to the method: 1.Experimental principle A CGRP receptor complex was coupled with Gs in G protein, the combination of CGRP and CGRP receptor complex led to Gs activation, and cAMP (3',5'-cyclic adenosine monophosphate) was produced. 2.Experimental purpose The ability of the compound of the present invention to inhibit CGRP-stimulated cAMP formation in SK-N-MC cells was determined. 3.Experimental materials 3.1Experimental cell line: SK-N-MC (neuroepithelioma cells) from National Science and Technology Infrastructure - Biomedical Materials and Cell Resources. 3.2Reagents and consumables
4.Experimental steps • 4.1Cell preparation: The SK-N-MC cells were resuscitated and cultured in advance, and a cell confluence degree should be 70%-80% before use. • 4.2A sample dilution, a tested compound and α-CGRP (human) were prepared. • 4.3Cell seeding and drug effect: The SK-N-MC cells were digested, centrifuged, then resuspended with the sample dilution, and inoculated into a 384-well plate. Each well was added with the α-CGRP (human) and the tested compound respectively, and blown and mixed evenly. The well plate was adhered with a sealing film, and placed on an enzyme-labeled incubator to incubate at 25°C. • 4.4cAMP determination: carried out according to LANCE Ultra cAMP Kit specification Eu-cAMP tracer and ULight-anti-cAMP working solutions were prepared in the dark, respectively added into the well plate, and blown and mixed evenly.

Setting [1] is: inhibition of CGRP-stimulated cAMP formation in SK-N-MC cells, read-out: IC50.
Where [2] appears, read: inhibition of CGRP-stimulated cAMP formation in SK-N-MC cells.

Like-named read-outs stand apart in the source and are kept apart here.

T1 sequence (Q16602 23-461): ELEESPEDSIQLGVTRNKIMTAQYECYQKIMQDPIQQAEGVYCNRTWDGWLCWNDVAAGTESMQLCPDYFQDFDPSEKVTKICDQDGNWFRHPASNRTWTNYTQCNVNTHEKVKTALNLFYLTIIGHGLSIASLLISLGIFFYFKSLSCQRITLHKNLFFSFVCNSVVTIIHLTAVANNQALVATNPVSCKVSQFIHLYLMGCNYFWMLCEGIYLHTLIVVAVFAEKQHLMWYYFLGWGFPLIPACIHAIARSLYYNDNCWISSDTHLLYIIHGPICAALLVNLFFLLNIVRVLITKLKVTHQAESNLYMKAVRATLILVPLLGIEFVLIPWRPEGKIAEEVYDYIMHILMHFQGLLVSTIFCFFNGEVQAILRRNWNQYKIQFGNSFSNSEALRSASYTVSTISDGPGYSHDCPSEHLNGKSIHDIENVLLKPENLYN
T1 sequence (O60894 27-148): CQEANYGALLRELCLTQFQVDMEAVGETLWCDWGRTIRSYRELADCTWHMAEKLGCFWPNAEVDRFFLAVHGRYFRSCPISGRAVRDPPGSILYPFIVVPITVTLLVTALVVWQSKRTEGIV

The IC50 is the concentration that inhibits the measured activity by half. As to `Cc1cc(C[C@@H](NC(=O)N2CCC(c3cc4c([nH]c3=O)SCCC4)CC2)C(=O)N2CC3CC2CC3N2CCCCC2)cc2cn[nH]c12` (stereo partly drawn) [Example 40, N-((2R)-3-(7-methyl-1H-indazole-5-yl)-1-oxo-1-(5-(piperidine-1-yl)-2-azabicyclo[2.2.1]hept-2-yl)propan-2-yl)-4-(7-oxo-3,4,7,8-tetrahydro-2H-thiopyrano[2,3-b]pyridine-6-yl)piperidine-1-formamide], the IC50 under setting [1] stood at 3.47 nM.

For the molecule `Cc1cc(C[C@@H](NC(=O)N2CCC(c3cc4c([nH]c3=O)SCCC4)CC2)C(=O)N2CCC(N3CCCCC3)CC2)cc2cn[nH]c12` [Example 26, (R)-N-(1-([1,4'-bipiperidine]-1'-yl)-3-(7-methyl-1H-indazole-5-yl)-1-oxopropan-2-yl)-4-(7-oxo-3,4,7,8-tetrahydro-2H-thiopyrano[2,3-b]pyridine-6-yl)piperidine-1-formamide], the IC50 under setting [1] came out at 0.1 nM.

For the molecule `Cc1cc(C[C@@H](NC(=O)N2CCC(c3cc4c([nH]c3=O)SCC4)CC2)C(=O)N2CC3CC2CC3N2CCCCC2)cc2cn[nH]c12` (some centres unmarked) [Example 36], the IC50 amounted to 4.61 nM.

In the case of `Cc1cc(CC(CC(=O)N2CCC(c3cc4c([nH]c3=O)SCC4)CC2)C(=O)N2CCN(C3CCN(C)CC3)CC2)cc2cn[nH]c12` (centres unmarked) [Example 31, 2-((7-methyl-1H-indazole-5-yl)methyl)-1-(4-(1-methylpiperidine-4-yl)piperazine-1-yl)-4-(4-(6-oxo-2,3,6,7-tetrahydrothieno[2,3-b]pyridine-5-yl)piperidine-1-yl)butane-1,4-dione], the IC50 under setting [1] was determined as 2.05 nM.

Take `Cc1cc(C[C@@H](NC(=O)N2CCC(c3cc4c([nH]c3=O)CCC4(C)C)CC2)C(=O)N2CCN(C3CCN(C)CC3)CC2)cc2cn[nH]c12` [Example 7]: the IC50 was found to be 6.02 nM.

On to `Cc1cc(C[C@@H](NC(=O)N2CCC(c3cc4c([nH]c3=O)SCCC4)CC2)C(=O)N2CCC(C)(N3CCCCC3)CC2)cc2cn[nH]c12` [Example 24, (R)-N-(3-(7-methyl-1H-indazole-5-yl)-1-(4'-methyl-[1,4'-bipiperidine]-1'-yl)-1-oxopropan-2-yl)-4-(7-oxo-3,4,7,8-tetrahydro-2H-thiopyrano[2,3-b]pyridine-6-yl)piperidine-1-formamide], for which, under setting [1], the IC50 worked out at 1.02 nM.

As to `Cc1cc(C[C@@H](NC(=O)N2CCC(c3cc4c([nH]c3=O)CCCC4)CC2)C(=O)N2CCN(C3CCN(C)CC3)CC2)cc2cn[nH]c12` [Example 52, (R)-N-(3-(7-methyl-1H-indazole-5-yl)-1-(4-(1-methylpiperidine-4-yl)piperazine-1-yl)-1-oxopropan-2-yl)-4-(2-oxo-1,2,5,6,7,8-hexahydroquinoline-3-yl)piperidine-1-formamide], under setting [1], the IC50 is 1.04 nM.

Take `Cc1cc(C[C@@H](NC(=O)N2CCC(c3cc4c([nH]c3=O)SCC4)CC2)C(=O)N2CCC(N3CCN(C)CC3)CC2)cc2cn[nH]c12` [Example 19, (R)-N-(3-(7-methyl-1H-indazole-5-yl)-1-(4-(4-methylpiperazine-1-yl)piperidine-1-yl)-1-oxopropan-2-yl)-4-(6-oxo-2,3,6,7-tetrahydrothieno[2,3-b]pyridine-5-yl)piperidine-1-formamide]: under setting [1], the IC50 was 0.39 nM.

Take `Cc1cc(C[C@@H](NC(=O)N2CCC(c3cc4c([nH]c3=O)SCC43CC3)CC2)C(=O)N2CCN(C3CCN(C)CC3)CC2)cc2cn[nH]c12` [Example 33, (R)-N-(3-(7-methyl-1H-indazole-5-yl)-1-(4-(1-methylpiperidine-4-yl)piperazine-1-yl)-1-oxopropan-2-yl)-4-(6'-oxo-6',7'-dihydro-2'H-spiro[cyclopropane-1,3'-thieno][2,3-b]pyridine-5'-yl)piperidine-1-formamide]: the concentration for half-maximal inhibition (IC50) came out at 0.37 nM.

`Cc1cc(C[C@@H](NC(=O)N2CCC(c3cc4c([nH]c3=O)SCCC4)CC2)C(=O)N2C3CCC2CC(N2CCCCC2)C3)cc2cn[nH]c12` (stereo partly drawn) [Example 39, N-((2R)-3-(7-methyl-1H-indazole-5-yl)-1-oxo-1-(3-(piperidine-1-yl)-8-azabicyclo[3.2.1]octane-8-yl)propan-2-yl)-4-(7-oxo-3,4,7,8-tetrahydro-2H-thiopyrano[2,3-b]pyridine-6-yl)piperidine-1-formamide]: the IC50 under setting [1] is 0.13 nM.

On to `Cc1cc(CC(OC(=O)N2CCC(c3cc4c([nH]c3=O)SCCC4)CC2)C(=O)N2CCN(C3CCN(C)CC3)CC2)cc2cn[nH]c12` (centres unmarked) [Example 41], for which the IC50 was determined as 0.38 nM.

On to `Cc1cc(C[C@@H](NC(=O)N2CCC(c3cc4c([nH]c3=O)SCC4)CC2)C(=O)N2CCC(N3CCCCC3)CC2)cc2cn[nH]c12` [Example 20, (R)-N-(1-([1,4'-bipiperidine]-1'-yl)-3-(7-methyl-1H-indazole-5-yl)-1-oxopropan-2-yl)-4-(6-oxo-2,3,6,7-tetrahydrothieno[2,3-b]pyridine-5-yl)piperidine-1-formamide], for which the IC50 under setting [1] was 0.37 nM.

For `Cc1cc(C[C@@H](NC(=O)N2CCC(c3cc4c([nH]c3=O)[S+]([O-])CC4)CC2)C(=O)N2CCN(C3CCN(C)CC3)CC2)cc2cn[nH]c12` (stereo partly drawn) [Example 35, N-((R)-3-(7-methyl-1H-indazole-5-yl)-1-(4-(1-methylpiperidine-4-yl)piperazine-1-yl)-1-oxopropan-2-yl)-4-(1-oxidation-6-oxo-2,3,6,7-tetrahydrothieno[2,3-b]pyridine-5-yl)piperidine-1-formamide], the IC50 is 0.69 nM.

With `Cc1cc(C[C@@H](NC(=O)N2CCN(c3cc4c([nH]c3=O)SCCC4)CC2)C(=O)N2CCN(C3CCN(C)CC3)CC2)cc2cn[nH]c12` [Example 18, (R)-N-(3-(7-methyl-1H-indazole-5-yl)-1-(4-(1-methylpiperidine-4-yl)piperazine-1-yl)-1-oxopropan-2-yl)-4-(7-oxo-3,4,7,8-tetrahydro-2H-thiopyrano[2,3-b]pyridine-6-yl)piperazine-1-for mamide], the IC50 under setting [2] was determined as 0.95 nM.

On to `Cc1cc(C[C@@H](NC(=O)N2CCC(c3cc4c([nH]c3=O)SCC4(C)C)CC2)C(=O)N2CCN(C3CCN(C)CC3)CC2)cc2cn[nH]c12` [Example 2, (R)-4-(3,3-dimethyl-6-oxo-2,3,6,7-tetrahydrothieno[2,3-b]pyridine-5-yl)-N-(3-(7-methyl-1H-indazole-5-yl)-1-(4-(1-methylpiperidine-4-yl)piperazine-1-yl)-1-oxopropan-2-yl)piperidine-1-formamide], for which the IC50 under setting [1] is 0.65 nM. Moreover, for the setting “inhibition of CGRP-stimulated cAMP formation, statement of the conclusion”, the “IC50 values / inhibitory activities (in words)” value is recorded as “pM level”.

With `Cc1cc(C[C@@H](NC(=O)N2CCC(c3cc4c([nH]c3=O)SCC3(CC3)C4)CC2)C(=O)N2CCN(C3CCN(C)CC3)CC2)cc2cn[nH]c12` [Example 46, (R)-N-(3-(7-methyl-1H-indazole-5-yl)-1-(4-(1-methylpiperidine-4-yl)piperazine-1-yl)-1-oxopropan-2-yl)-4-(7'-oxo-7',8'-dihydro-2'H,4'H-spiro[cyclopropane-1,3'-thiopyrano[2,3-b]pyridine]-6'-yl)piperidine-1-formamide], under setting [1], the IC50 was found to be 0.15 nM.

For `Cc1cc(C[C@@H](NC(=S)N2CCC(c3cc4c([nH]c3=O)SCCC4)CC2)C(=O)N2CCN(C3CCN(C)CC3)CC2)cc2cn[nH]c12` [Example 23], the IC50 is 1.12 nM.

For `Cc1cc(C[C@@H](NC(=O)N2CCC(c3cc4c([nH]c3=O)CCC4)CC2)C(=O)N2CCN(C3CCN(C)CC3)CC2)cc2cn[nH]c12` [Example 51, (R)-N-(3-(7-methyl-1H-indazole-5-yl)-1-(4-(1-methylpiperidine-4-yl)piperazine-1-yl)-1-oxopropan-2-yl)-4-(2-oxo-2,5,6,7-tetrahydro-1H-cyclopentadieno[b]pyridine-3-yl)piperidine-1-f ormamide], the IC50 came out at 1.94 nM.

As for `Cc1cc(C[C@@H](NC(=O)N2CCC(c3cc4c([nH]c3=O)CCS4)CC2)C(=O)N2CCN(C3CCN(C)CC3)CC2)cc2cn[nH]c12` [Example 17, (R)-N-(3-(7-methyl-1H-indazole-5-yl)-1-(4-(1-methylpiperidine-4-yl)piperazine-1-yl)-1-oxopropan-2-yl)-4-(5-oxo-2,3,4,5-tetrahydrothieno[3,2-b]pyridine-6-yl)piperidine-1-formamide], the IC50 under setting [1] stood at 15.4 nM.

`Cc1cc(C[C@@H](NC(=O)N2CCC(c3cc4c([nH]c3=O)CSC4)CC2)C(=O)N2CCN(C3CCN(C)CC3)CC2)cc2cn[nH]c12` [Example 11, (R)-N-(3-(7-methyl-1H-indazole-5-yl)-1-(4-(1-methylpiperidine-4-yl)piperazine-1-yl)-1-oxopropan-2-yl)-4-(2-oxo-1,2,5,7-tetrahydrothieno[3,4-b]pyridine-3-yl)piperidine-1-formamide]: the IC50 under setting [1] was 7.83 nM.

Regarding `Cc1cc(C[C@@H](NC(=S)N2CCC(c3cc4c([nH]c3=O)SCC4)CC2)C(=O)N2CCN(C3CCN(C)CC3)CC2)cc2cn[nH]c12` [Example 16], the IC50 worked out at 0.71 nM.

Take `Cc1cc(C[C@@H](NC(=O)N2CCC(c3cc4c([nH]c3=O)CSCC4)CC2)C(=O)N2CCN(C3CCN(C)CC3)CC2)cc2cn[nH]c12` [Example 13, (R)-N-(3-(7-methyl-1H-indazole-5-yl)-1-(4-(1-methylpiperidine-4-yl)piperazine-1-yl)-1-oxopropan-2-yl)-4-(2-oxo-2,5,6,8-tetrahydro-1H-thiopyrano[3,4-b]pyridine-3-yl)piperidine-1-for mamide]: the IC50 under setting [2] was 1.44 nM.
